Experimental data: patent publication US20120093947A1, “METHOD OF TREATING REACTIVE AIRWAY DISEASE” (UNITED STATES DEPARTMENT OF VETERANS AFFAIRS, priority 2009, published 2012)
Read-outs that look alike come from different tables or passages of the source.

What was measured:
LPO [1] = target: T1, LPO (Bos taurus, UniProt P80025); assay: Nitration of salbutamol by LPO/H2O2/NO2−, A410; type: biochemical, bovine; conditions: for Nitrophenols, (%) LPO: […] NaNO2, 4 mM H2O2, 65 nM LPO, pH 7.0, 10 min, ΔA410 versus control
T1 construct: Lactoperoxidase (LPO) from bovine milk (EC 1.11.1.7); purchased Sigma-Aldrich Co. (St. Louis, Mo.); host or cells: bovine milk (natural source)
Method: Spectrophotometric Measurements. Spectra are measured using an Agilent diode array spectrophotometer model 8453 (Agilent Technologies, Inc., Santa Clara, Calif.). Nitration of salbutamol is studied by measuring absorption spectra at designated time points following the start of the reaction. Samples are prepared in 100 mM phosphate buffers (pH 7.0). All buffers contained DTPA (100 μM) or are pretreated with Chelex-100 before use, and measurements are performed at ambient temperature of 20° C. Typically, the reaction is started by the addition of a small aliquot of H2O2 or the desired peroxidase. Time course measurements are carried out following changes in absorbance at 410 nm in 30 second intervals versus absorbance at 800 nm, where none of the compounds absorb.
Ascorbate (AscH^−) is an effective natural antioxidant protecting airways from oxidative injury. Cross et al., (1994) Environ. Health Perspect. 102 (suppl. 10):185-191. Its concentration in the respiratory tract lining fluid is estimated to be near 100 μM (Id.). We examine the effect of AscH^− on nitration of 100 μM salbutamol by 67 nM LPO, 4 mM H2O2, and 3.5 mM of NaNO2 by measuring absorption at 410 nm. […] The duration of the lag period depends on AscH^− concentration. […] See, e.g., Reszka et al. (1999) Free Radic. Biol. & Med. 26:669-678.
As noted earlier, methimazole is an antithyroid drug, an effective inhibitor of LPO activity. 100 μM of salbutamol is reacted with 73 nM LPO, 3.5 mM NaNO2, and 4 mM H2O2 at pH buffer 7.0 in the presence of 0, 27, 55, and 109 μM methimazole (shown in FIG. 9, section A, traces a-d, respectively). Traces c and d also indicate by arrow when additional LPO is added to the system. […] In contrast to effects exerted by AscH^− or SCN^−, methimazole-dependent inhibition is permanent and is probably due to inactivation of the enzyme, since a second dose of LPO reactivates the process (FIG. 9, section A, trace c).
Dapsone, an anti-inflammatory and anti-leprotic agent, is a potent inhibitor of LPO and MPO. See, e.g., Kettle et al. (1991) Biochem. Pharmacol. 41(10):1485-1492; Bozeman et al. (1992) Biochem. Pharmacol. 44(2):553-563. 97 μM of salbutamol is reacted with 65 nM LPO, 3.4 mM NaNO2, and 4 mM H2O2 at pH buffer 7.0 in the presence of 0, 2.5, 5, 10, 50, and 100 μM dapsone (shown in FIG. 10, traces a-f, respectively). The arrows in traces d and e of FIG. 10 indicate where additional LPO is added to the system. […] Dapsone at 50 μM inhibited nitration by approximately 86%. Given the high concentrations of NaNO2 and H2O2 used in this system, dapsone appears to be a potent blocker of nitration.
The extent of nitration is expressed as a change in ΔA410 versus control (dapsone omitted) taken as 100% after 10, 30, and 60 minute reactions for LPO, MPO, and EPO nitrating systems, respectively. Results equal the means±SE of at least two measurements. In the LPO system, 100 μM of salbutamol, 3.4 mM of NaNO2, 4 mM of H2O2, and 65 nM of LPO is used. In the MPO system, 50 μM of salbutamol, 5.0 mM of NaNO2, 5 mM of H2O2, and 0.2 U/mL of MPO is used. In the EPO system, 50 μM of salbutamol, 5 mM of NaNO2, 2 mM of H2O2, and 0.075 U/mL of EPO is used. All reactions were carried out in pH 7.0 phosphate buffer containing DMSO (5% v/v). The term “nitrophenols” includes nitrosalbutamol (N-Sal) and salbutamol-derived nitrophenol (N—ArOH).

LPO [2] = target: T1, LPO; assay: EPR of MNP adducts with radicals from β2-agonists generated by LPO/H2O2; type: biochemical, bovine; conditions: pH 8.0
Method: Formation of free radicals from β2-agonists is studied in samples prepared in 100 mM phosphate buffer (pH 7.0 and 8.0)/DTPA (0.2 mM) (total volume 250 μL) containing MNP, MPO (or LPO) and the agonists. The reaction is initiated by the addition of H2O2 as the last component. In experiments in which H2O2 was generated using glucose (1 mM) and glucose oxidase (3.9 μg/mL), glucose oxidase is added as a last component. The sample is transferred to a flat aqueous EPR cell and recording is started 1 minute after initiation of the reaction. Typically, spectra of MNP adducts are recorded using microwave power 20 mW, modulation amplitude 0.1 mT, receiver gain 2×10^5, conversion time 40.96 ms, time constant 81.92 ms, and scan rate of 10 mT/41.92 s. EPR spectra constitute an average of 5 scans and represent results of typical experiments. Unless stated otherwise, direct EPR measurements (spin traps omitted) of free radicals derived from β2-agonists are performed using conditions similar to those for the detection of MNP adducts. EPR spectra are simulated using WINSIM software developed at NIEHS/NIH (RTP, NC).
The effect of methimazole and dapsone on the formation of free radicals from drugs is studied in phosphate buffers (pH 7.0 and 8.0) containing DTPA (0.2 mM) and MNP (10 mM in dimers). Oxidation is carried out by MPO (0.43 units/mL)/H2O2 (37 μM) and LPO (0.39 μM)/glucose (1 mM)/glucose oxidase (0.8 μg/mL). […]
Table 3, below, summarizes the effects of dapsone and methimazole on EPR spectra of MNP adducts with radicals from fenoterol and terbutaline generated by MPO/H2O2 and LPO/H2O2 systems at a pH of 8.0. Concentrations of MNP spin adducts were calculated as second integrals of the low-field component of the respective spectra and are expressed as % of control samples (no additives). Results equal the means±SE of at least two measurements.
. […] This is consistent with the known inhibitory action of both methimazole and dapsone on LPO activity and only methimazole on MPO activity. Thomas et al. (1994) J. Dent. Res. 73(2):544-55. Results obtained at pH 7.0 qualitatively agree with those at pH 8.0.

Row | Nitrophenols, (%) LPO (LPO [1]; dapsone 2.5 μM, 100 μM salbutamol) | Nitrophenols, (%) LPO (LPO [1]; dapsone 5.0 μM, 100 μM salbutamol) | Nitrophenols, (%) LPO (LPO [1]; dapsone 10.0 μM, 100 μM salbutamol) | inhibition at 50 µM (LPO [1]; dapsone 50 μM, 97 μM salbutamol, 65 nM LPO, 3.4 mM NaNO2, 4 mM H2O2, pH 7.0) | Nitrophenols, (%) LPO (LPO [1]; dapsone 50.0 μM, 100 μM salbutamol) | Concentration of MNP spin adducts, Fenoterol, +LPO + H2O2, % of control (LPO [2]; fenoterol 0.047 mM, inhibitor 1 mM, reagent H2O2 37 μM) | remaining activity at 1000 µM (LPO [2]; fenoterol 0.047 mM, inhibitor 1 mM, reagent H2O2 37 μM, read-out: Concentration of MNP spin adducts, Fenoterol, +LPO + H2O2, % of control) | Concentration of MNP spin adducts, Terbutaline, +LPO + H2O2, % of control (LPO [2]; terbutaline 0.047 mM, inhibitor 1 mM, reagent H2O2 37 μM) | remaining activity at 1000 µM (LPO [2]; terbutaline 0.047 mM, inhibitor 1 mM, reagent H2O2 37 μM, read-out: Concentration of MNP spin adducts, Terbutaline, +LPO + H2O2, % of control) | Nitration of salbutamol by LPO/H2O2/NO2− (A410 versus time) (LPO [1]; methimazole close to 100 μM (109 μM), 100 μM salbutamol, 73 nM LPO, 3.5 mM NaNO2, 4 mM H2O2, pH 7.0) | Concentration of MNP spin adducts, Fenoterol, +LPO + H2O2, % of control (LPO [2]; fenoterol 0.47 mM, inhibitor 0.86 mM, H2O2 from glucose 1 mM/glucose oxidase 0.8 μg/mL) | remaining activity at 860 µM (LPO [2]; fenoterol 0.47 mM, inhibitor 0.86 mM, H2O2 from glucose 1 mM/glucose oxidase 0.8 μg/mL, read-out: Concentration of MNP spin adducts, Fenoterol, +LPO + H2O2, % of control) | Concentration of MNP spin adducts, Terbutaline, +LPO + H2O2, % of control (LPO [2]; terbutaline 0.47 mM, inhibitor 0.86 mM, H2O2 from glucose 1 mM/glucose oxidase 0.8 μg/mL) | remaining activity at 860 µM (LPO [2]; terbutaline 0.47 mM, inhibitor 0.86 mM, H2O2 from glucose 1 mM/glucose oxidase 0.8 μg/mL, read-out: Concentration of MNP spin adducts, Terbutaline, +LPO + H2O2, % of control) | SMILES
1 | 72.8 ± 2.0% | 58.4 ± 1.4% | 45.7 ± 2.0% | ~86% | 14.0 ± 2.7% | markedly inhibit | 13.9 ± 0.6% | markedly inhibit | 54.6 ± 20% | – | – | – | – | – | Nc1ccc(S(=O)(=O)c2ccc(N)cc2)cc1 [Dapsone, diamino-diphenyl sulfone]
2 | – | – | – | – | – | – | – | – | – | completely prevents | markedly inhibit | 26.9 ± 8.2% | markedly inhibit | 33.9% | Cn1cc[nH]c1=S [Methimazole, 1-methyl-3H-imidazole-2-thione]
